Results reported in patent publication US20040143009A1, “Amines, uses thereof” (L'OREAL, priority 2002, published 2004).

Tests used:
[1] = system: rat-isolated phrenic nerve/diaphragm (striated muscle) preparation; test: Nerve/muscle (motor plate) junction model, isolated phrenic nerve/diaphragm preparation; conditions: at 10^-4 M
Method: Compound 1 was tested on a nerve/muscle (motor plate) junction model obtained in a rat-isolated phrenic nerve/diaphragm (striated muscle) preparation (Pollard B. J. et al., Br. J. Anaesth., 1988, 61, 419-424).
(§1) This test is predictive of an antiwrinkle effect, as was verified by the applicant on diazepam, which is both active in vivo in humans and in this test at 10^−4 M.
The phrenic nerve and the diaphragm are carefully isolated and placed in a 50 ml tank filled with survival fluid (Krebs Henseleit fluid) kept at a temperature of 37° C. and oxygenated with an oxygen/CO2 (95/5) mixture.
Variations in the tension of the diaphragm are recorded with an initial preload of several grams.
After a relaxation period of 30 min, the diaphragm is indirectly stimulated by means of the phrenic nerve.
On each preparation, the effect of the test compound was evaluated on contractions induced by indirect stimulation via stimulation on the phrenic nerve (0.1 to 0.5 volts, 0.3 ms, 0.1 Hz). Alverine, known as a muscle-relaxing compound with antiwrinkle effect according to application FR-2 798 590, is used as control.

[2] = Antiwrinkle effect in vivo in humans
From the text: as §1

CN1C(=O)CN=C(c2ccccc2)c2cc(Cl)ccc21 [diazepam]
activity in the nerve/muscle junction test [1]: active
antiwrinkle activity in vivo in humans [2]: active
